Laboratory results from ChEMBL document CHEMBL1201862, “PubChem BioAssay data set” (2004).
Calls of active or inactive are those of the source.

Experiments:
[1] = molecular target: Alkaline phosphatase, placental type (Homo sapiens, UniProt P05187); assay: PLAP enzyme inhibitors, confirmation, biochemical, luminescence (AID 1512); format: functional
[2] = molecular target: T1, Alkaline phosphatase, tissue-nonspecific isozyme (Homo sapiens, UniProt P05186); assay: human TNAP enzyme inhibitors, SAR follow-up, biochemical, luminescent, dose response (AID 1056)
T1 sequence (P05186 whole entry): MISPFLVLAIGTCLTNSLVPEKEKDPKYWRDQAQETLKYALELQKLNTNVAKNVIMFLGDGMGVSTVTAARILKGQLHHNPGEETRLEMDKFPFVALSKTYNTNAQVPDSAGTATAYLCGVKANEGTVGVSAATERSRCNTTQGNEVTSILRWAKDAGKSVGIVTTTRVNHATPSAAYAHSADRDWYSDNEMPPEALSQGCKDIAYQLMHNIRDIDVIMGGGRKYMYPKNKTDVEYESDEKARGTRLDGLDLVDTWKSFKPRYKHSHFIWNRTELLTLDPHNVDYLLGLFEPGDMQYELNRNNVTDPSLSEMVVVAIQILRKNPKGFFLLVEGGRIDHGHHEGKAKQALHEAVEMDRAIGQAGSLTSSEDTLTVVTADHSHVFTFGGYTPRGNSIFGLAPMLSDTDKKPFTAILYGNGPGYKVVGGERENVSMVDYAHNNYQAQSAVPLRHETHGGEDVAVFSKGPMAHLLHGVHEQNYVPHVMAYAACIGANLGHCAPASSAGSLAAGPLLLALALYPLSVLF

[3] = molecular target: DNA damage-inducible transcript 3 protein (Mus musculus, UniProt P35639); format: functional, Cricetulus griseus
X-box-binding protein 1 = X-box-binding protein 1 (Homo sapiens, UniProt P17861); format: functional, Cricetulus griseus;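 note: confirmatory dose-response counter-screen serving a CHOP assay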
[4] = Luminescence Cell-Based Dose Response HTS to Identify Inhibitors of 5'UTR Stem-Loop Driven Prion Protein mRNA Translation in H4 Neuroglioblastoma Cells. [Related pubchem assays: 1827 (Project Summary), 1813 (Primary HTS)]; format: functional
[5] = inhibitors of firefly luciferase expression or activity, dose response, H4 neuroglioma cells, luminescence (AID 1990); format: functional, cell-based
[6] = inhibitors of SNCA 5'UTR-driven reporter translation, confirmation, H4 neuroglioma cells, luminescence (AID 1988); format: functional, cell-based
[7] = growth suppression of beta-catenin-knockout colon cells, dose response, cell-based, HCT116, human colon tumor (AID 1045); format: functional;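 note: HCT116 colon tumor cells with beta catenin knocked out; cells exposed to compound for 60 hours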
[8] = molecular target: G-protein coupled receptor 55 (Homo sapiens, UniProt Q9Y2T6); assay: GPR55 agonists via beta-arrestin recruitment, primary screen, imaging, U2OS cells, beta-arrestin-GFP redistribution (AID 1961); format: functional
[9] = growth suppression of PTEN-null colon cells, dose response, cell-based, HCT116 PTEN knockout (AID 1047); format: functional;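 note: HCT116 colon tumor cells with PTEN knocked out; cells exposed to compound for 60 hours before readout; potency for loss of cell viability measured by luminescence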
Estrogen receptor = molecular target: T2, Estrogen receptor (Homo sapiens, UniProt P03372);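 note: potency for inhibiting coactivator peptide recruitment to the receptor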
T2 sequence (P03372 whole entry): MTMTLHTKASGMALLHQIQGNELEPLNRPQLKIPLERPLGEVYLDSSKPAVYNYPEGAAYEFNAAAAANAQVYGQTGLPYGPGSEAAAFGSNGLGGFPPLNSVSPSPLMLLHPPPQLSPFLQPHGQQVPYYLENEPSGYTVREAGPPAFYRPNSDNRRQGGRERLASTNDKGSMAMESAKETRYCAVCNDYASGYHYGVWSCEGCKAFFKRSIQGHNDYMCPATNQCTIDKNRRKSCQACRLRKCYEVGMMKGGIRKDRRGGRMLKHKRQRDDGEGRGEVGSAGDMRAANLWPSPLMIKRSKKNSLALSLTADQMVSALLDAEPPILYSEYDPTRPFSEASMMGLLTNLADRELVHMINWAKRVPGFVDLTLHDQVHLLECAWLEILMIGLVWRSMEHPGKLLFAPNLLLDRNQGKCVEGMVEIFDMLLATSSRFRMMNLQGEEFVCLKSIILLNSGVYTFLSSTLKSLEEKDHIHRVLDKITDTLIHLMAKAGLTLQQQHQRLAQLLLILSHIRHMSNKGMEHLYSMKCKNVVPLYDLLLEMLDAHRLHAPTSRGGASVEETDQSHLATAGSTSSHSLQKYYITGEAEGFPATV

Integrin alpha-L = Integrin alpha-L (Mus musculus, UniProt P24063); assay: modulators of CD8 T cell-vesicle binding, dose response, powder samples, mouse 2C CD8+ cells (AID 504565); format: functional
T-cell = assay: inhibitors of CD8+ T cell–vesicle binding, dose response, mouse 2C CD8+ T cells, flow cytometry (AID 485284); format: functional
[10] = molecular target: Mitogen-activated protein kinase 10 (Homo sapiens, UniProt P53779); assay: Dose response biochemical screening assay for inhibitors of c-Jun N-Terminal Kinase 3 (JNK3). [Related pubchem assays: 746 ]
Chain of Mitogen-activated protein kinase 10 (P53779 whole entry): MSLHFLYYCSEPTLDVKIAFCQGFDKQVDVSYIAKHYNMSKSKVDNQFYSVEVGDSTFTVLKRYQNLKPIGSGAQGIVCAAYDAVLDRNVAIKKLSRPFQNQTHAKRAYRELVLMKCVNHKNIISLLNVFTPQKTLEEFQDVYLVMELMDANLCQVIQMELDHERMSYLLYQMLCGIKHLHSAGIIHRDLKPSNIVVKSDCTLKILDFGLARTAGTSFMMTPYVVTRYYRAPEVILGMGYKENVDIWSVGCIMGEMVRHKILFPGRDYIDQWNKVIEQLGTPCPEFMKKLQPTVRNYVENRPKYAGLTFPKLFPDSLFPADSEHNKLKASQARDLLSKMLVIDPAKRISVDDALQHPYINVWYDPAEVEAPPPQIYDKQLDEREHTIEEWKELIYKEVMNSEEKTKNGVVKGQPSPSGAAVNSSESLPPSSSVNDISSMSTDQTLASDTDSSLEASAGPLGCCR

Chain of Alkaline phosphatase, placental type (P05187 whole entry): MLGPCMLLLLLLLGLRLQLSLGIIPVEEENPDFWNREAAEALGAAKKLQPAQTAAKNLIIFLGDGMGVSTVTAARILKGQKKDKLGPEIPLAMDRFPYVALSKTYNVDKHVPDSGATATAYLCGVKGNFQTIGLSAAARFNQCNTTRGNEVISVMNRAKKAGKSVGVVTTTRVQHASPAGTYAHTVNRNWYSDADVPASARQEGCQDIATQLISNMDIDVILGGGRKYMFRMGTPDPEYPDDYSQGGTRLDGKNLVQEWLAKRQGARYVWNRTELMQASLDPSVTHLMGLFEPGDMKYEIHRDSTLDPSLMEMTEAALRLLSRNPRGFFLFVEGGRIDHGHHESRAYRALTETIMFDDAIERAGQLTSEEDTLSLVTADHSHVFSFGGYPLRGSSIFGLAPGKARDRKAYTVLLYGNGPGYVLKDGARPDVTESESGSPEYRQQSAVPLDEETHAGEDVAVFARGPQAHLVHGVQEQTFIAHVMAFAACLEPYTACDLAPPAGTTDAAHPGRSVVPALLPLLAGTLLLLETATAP
Chain of X-box-binding protein 1 (P17861 whole entry): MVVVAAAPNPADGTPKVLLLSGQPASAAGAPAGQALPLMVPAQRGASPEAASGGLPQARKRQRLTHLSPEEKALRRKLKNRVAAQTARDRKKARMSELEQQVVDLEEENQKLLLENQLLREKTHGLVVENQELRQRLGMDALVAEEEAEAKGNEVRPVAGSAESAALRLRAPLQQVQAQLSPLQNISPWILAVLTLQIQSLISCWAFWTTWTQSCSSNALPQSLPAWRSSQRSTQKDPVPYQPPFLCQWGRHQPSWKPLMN
Chain of G-protein coupled receptor 55 (Q9Y2T6 whole entry): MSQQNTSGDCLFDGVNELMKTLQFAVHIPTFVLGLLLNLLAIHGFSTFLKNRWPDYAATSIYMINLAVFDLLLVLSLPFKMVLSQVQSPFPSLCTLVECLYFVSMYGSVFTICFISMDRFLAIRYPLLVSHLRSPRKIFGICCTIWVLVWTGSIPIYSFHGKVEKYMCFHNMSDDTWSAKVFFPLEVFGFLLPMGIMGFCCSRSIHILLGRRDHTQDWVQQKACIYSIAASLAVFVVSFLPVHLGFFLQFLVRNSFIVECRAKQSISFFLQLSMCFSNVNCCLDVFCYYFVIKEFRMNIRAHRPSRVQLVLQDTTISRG
Chain of Integrin alpha-L (P24063 whole entry): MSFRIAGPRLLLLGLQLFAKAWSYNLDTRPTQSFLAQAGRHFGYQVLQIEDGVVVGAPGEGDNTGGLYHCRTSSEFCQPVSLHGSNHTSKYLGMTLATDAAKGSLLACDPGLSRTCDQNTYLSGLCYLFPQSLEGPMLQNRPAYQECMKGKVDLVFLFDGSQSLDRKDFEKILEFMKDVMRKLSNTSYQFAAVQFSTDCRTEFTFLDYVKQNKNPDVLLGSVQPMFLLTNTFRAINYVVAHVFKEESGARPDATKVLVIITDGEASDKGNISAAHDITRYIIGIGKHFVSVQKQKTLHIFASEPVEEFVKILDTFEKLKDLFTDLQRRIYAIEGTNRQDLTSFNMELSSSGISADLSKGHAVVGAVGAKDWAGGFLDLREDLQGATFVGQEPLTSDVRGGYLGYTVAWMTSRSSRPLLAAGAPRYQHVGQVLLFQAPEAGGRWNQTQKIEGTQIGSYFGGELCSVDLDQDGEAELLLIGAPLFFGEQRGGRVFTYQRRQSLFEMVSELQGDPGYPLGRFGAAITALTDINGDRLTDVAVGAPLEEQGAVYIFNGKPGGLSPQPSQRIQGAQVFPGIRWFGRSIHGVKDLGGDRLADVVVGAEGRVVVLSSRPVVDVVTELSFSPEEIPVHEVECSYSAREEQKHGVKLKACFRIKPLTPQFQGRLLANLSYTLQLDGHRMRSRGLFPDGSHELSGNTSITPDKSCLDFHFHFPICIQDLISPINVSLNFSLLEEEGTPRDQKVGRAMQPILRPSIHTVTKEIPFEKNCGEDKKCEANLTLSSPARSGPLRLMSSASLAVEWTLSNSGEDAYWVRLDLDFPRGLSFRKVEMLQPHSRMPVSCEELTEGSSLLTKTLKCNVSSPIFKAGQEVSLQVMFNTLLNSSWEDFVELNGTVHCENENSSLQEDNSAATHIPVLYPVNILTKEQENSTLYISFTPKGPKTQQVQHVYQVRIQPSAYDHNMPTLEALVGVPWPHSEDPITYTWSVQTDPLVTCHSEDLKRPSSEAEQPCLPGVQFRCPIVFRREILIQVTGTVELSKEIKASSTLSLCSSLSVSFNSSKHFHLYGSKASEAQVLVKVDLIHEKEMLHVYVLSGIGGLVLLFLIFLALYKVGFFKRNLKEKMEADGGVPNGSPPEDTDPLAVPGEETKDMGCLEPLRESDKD
Chain of DNA damage-inducible transcript 3 protein (P35639 whole entry): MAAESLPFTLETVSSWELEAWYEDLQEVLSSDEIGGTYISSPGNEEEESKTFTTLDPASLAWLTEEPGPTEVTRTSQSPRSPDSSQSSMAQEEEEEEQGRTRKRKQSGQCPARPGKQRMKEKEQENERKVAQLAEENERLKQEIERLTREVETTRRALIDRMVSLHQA

Q: Which IC50 [1] does the source give for O=C(Cn1ccnc1)c1ccc(O)c(O)c1 here?
A: 5.37 µM (active)

Q: What about the IC50 [2] of the same molecule?
A: > 100 µM (inactive)

Q: For CC(C)CCn1c(SCc2ccc(Cl)cc2)nc2c1c(=O)[nH]c(=O)n2C, which “Absolute IC50 (CHOP)” value [3] is on record?
A: < 10 µM

Q: And the “Absolute IC50 (XBP1)” value (X-box-binding protein 1)?
A: 10 µM

Q: And the EC50 [4]?
A: 13.3 µM (active)

Q: And the EC50 [5]?
A: 14.3 µM (active)

Q: What about the EC50 [6] of the same molecule?
A: 11.6 µM (active)

Q: Which results are given for CCc1nnc2n1N=C(c1ccc(-c3cc(Cl)ccc3Cl)o1)CS2?
A: EC50 [7]: 95.9 µM (active); EC50 [8]: 734 nM (active); EC50 [9]: 27.1 µM (active); IC50 (Estrogen receptor): 44 µM (not active)

Q: Which EC50 (Integrin alpha-L) does the source give for CCOc1ccc(-c2nc(N)ncc2-c2ccccc2)c(O)c1 here?
A: 173 nM (active)

Q: And the EC50 (T-cell)?
A: 25.8 µM (inactive)

Q: What about the IC50 [10] of the same molecule?
A: 12.7 µM (not active)
